Test system: NCI-H929 complex spheroids, viability % test/control
Assay: Anticancer human tumor NCI-H929 cell line growth inhibition [RAS];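 also: compound exposure lasted seven days before viability was read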;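 as to viability, T/C: 100% = DMSO vehicle control viability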
Details: for IC50: curve of first compound; for viability, T/C: stronger effect = lower value
In short: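 Tumour cells grown as complex spheroids with HUVEC endothelial cells and mesenchymal stem cells, treated with RAS pathway inhibitor combinations. Each agent spans half-log steps from near clinical Cmax, or 10 microM where Cmax is unknown.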

[1] = second compound 0.000949 µM, first compound 0.000949 µM
[2] = second compound 0.000949 µM, first compound 0.003 µM
[3] = second compound 0.000949 µM, first compound 0.00949 µM
[4] = second compound 0.000949 µM, first compound 0.03 µM
[5] = second compound 0.000949 µM, first compound 0.0949 µM
[6] = second compound 0.000949 µM, first compound 0.3 µM
[7] = second compound 0.003 µM, first compound 0.000949 µM
[8] = second compound 0.003 µM, first compound 0.003 µM
[9] = second compound 0.003 µM, first compound 0.00949 µM
[10] = second compound 0.003 µM, first compound 0.03 µM
[11] = second compound 0.003 µM, first compound 0.0949 µM
[12] = second compound 0.003 µM, first compound 0.3 µM
[13] = second compound 0.00949 µM, first compound 0.000949 µM
[14] = second compound 0.00949 µM, first compound 0.003 µM
[15] = second compound 0.00949 µM, first compound 0.00949 µM
[16] = second compound 0.00949 µM, first compound 0.03 µM
[17] = second compound 0.00949 µM, first compound 0.0949 µM
[18] = second compound 0.00949 µM, first compound 0.3 µM
[19] = second compound 0.03 µM, first compound 0.000949 µM
[20] = second compound 0.03 µM, first compound 0.003 µM
[21] = second compound 0.03 µM, first compound 0.00949 µM
[22] = second compound 0.03 µM, first compound 0.03 µM
[23] = second compound 0.03 µM, first compound 0.0949 µM
[24] = second compound 0.03 µM, first compound 0.3 µM
[25] = second compound 0.0949 µM, first compound 0.000949 µM
[26] = second compound 0.0949 µM, first compound 0.003 µM
[27] = second compound 0.0949 µM, first compound 0.00949 µM
[28] = second compound 0.0949 µM, first compound 0.03 µM
[29] = second compound 0.0949 µM, first compound 0.0949 µM
[30] = second compound 0.0949 µM, first compound 0.3 µM
[31] = second compound 0.3 µM, first compound 0.000949 µM
[32] = second compound 0.3 µM, first compound 0.003 µM
[33] = second compound 0.3 µM, first compound 0.00949 µM
[34] = second compound 0.3 µM, first compound 0.03 µM
[35] = second compound 0.3 µM, first compound 0.0949 µM
[36] = second compound 0.3 µM, first compound 0.3 µM

SMILES: C=CC(=O)N1CCN(c2nc(OCC3CCCN3C)nc3c(F)c(-c4nc(N)cc(C)c4C(F)(F)F)c(Cl)cc23)C(C)C1 (stereo unspecified) + CCn1c(-c2cccnc2C(C)OC)c2c3cc(ccc31)N1CCOC(CC(NC(=O)C(C(C)C)N(C)C(=O)C3(F)CCN(C(=O)C#CC(C)(C)N(C)C)CC3)C(=O)N3CCCC(N3)C(=O)OCC(C)(C)C2)C1
- IC50 (second compound 0.000949 µM): > 1000 nM
- IC50 (second compound 0.003 µM): > 1000 nM
- IC50 (second compound 0.00949 µM): > 1000 nM
- IC50 (second compound 0.03 µM): > 1000 nM
- IC50 (second compound 0.0949 µM): > 1000 nM
- IC50 (second compound 0.3 µM): > 1000 nM
- viability, T/C (second compound 0.000949 µM, first compound 0.00316 µM): 104%
- viability, T/C (second compound 0.000949 µM, first compound 0.01 µM): 103%
- viability, T/C (second compound 0.000949 µM, first compound 0.0316 µM): 103%
- viability, T/C (second compound 0.000949 µM, first compound 0.1 µM): 104%
- viability, T/C (second compound 0.000949 µM, first compound 0.316 µM): 102%
- viability, T/C (second compound 0.000949 µM, first compound 1 µM): 105%
- viability, T/C (second compound 0.003 µM, first compound 0.00316 µM): 104%
- viability, T/C (second compound 0.003 µM, first compound 0.01 µM): 105%
- viability, T/C (second compound 0.003 µM, first compound 0.0316 µM): 101%
- viability, T/C (second compound 0.003 µM, first compound 0.1 µM): 102%
- viability, T/C (second compound 0.003 µM, first compound 0.316 µM): 107%
- viability, T/C (second compound 0.003 µM, first compound 1 µM): 104%
- viability, T/C (second compound 0.00949 µM, first compound 0.00316 µM): 104%
- viability, T/C (second compound 0.00949 µM, first compound 0.01 µM): 101%
- viability, T/C (second compound 0.00949 µM, first compound 0.0316 µM): 106%
- viability, T/C (second compound 0.00949 µM, first compound 0.1 µM): 107%
- viability, T/C (second compound 0.00949 µM, first compound 0.316 µM): 106%
- viability, T/C (second compound 0.00949 µM, first compound 1 µM): 105%
- viability, T/C (second compound 0.03 µM, first compound 0.00316 µM): 102%
- viability, T/C (second compound 0.03 µM, first compound 0.01 µM): 99.7%
- viability, T/C (second compound 0.03 µM, first compound 0.0316 µM): 106%
- viability, T/C (second compound 0.03 µM, first compound 0.1 µM): 105%
- viability, T/C (second compound 0.03 µM, first compound 0.316 µM): 106%
- viability, T/C (second compound 0.03 µM, first compound 1 µM): 107%
- viability, T/C (second compound 0.0949 µM, first compound 0.00316 µM): 102%
- viability, T/C (second compound 0.0949 µM, first compound 0.01 µM): 103%
- viability, T/C (second compound 0.0949 µM, first compound 0.0316 µM): 106%
- viability, T/C (second compound 0.0949 µM, first compound 0.1 µM): 104%
- viability, T/C (second compound 0.0949 µM, first compound 0.316 µM): 107%
- viability, T/C (second compound 0.0949 µM, first compound 1 µM): 104%
- viability, T/C (second compound 0.3 µM, first compound 0.00316 µM): 102%
- viability, T/C (second compound 0.3 µM, first compound 0.01 µM): 104%
- viability, T/C (second compound 0.3 µM, first compound 0.0316 µM): 106%
- viability, T/C (second compound 0.3 µM, first compound 0.1 µM): 107%
- viability, T/C (second compound 0.3 µM, first compound 0.316 µM): 107%
- viability, T/C (second compound 0.3 µM, first compound 1 µM): 103%

SMILES: CC1(C)CCC(Nc2ncc(C(F)(F)F)c(-c3c[nH]c4c(P(C)(C)=O)c(C#N)ccc34)n2)CN1 (stereo unspecified) + CCn1c(-c2cccnc2C(C)OC)c2c3cc(ccc31)N1CCOC(CC(NC(=O)C(C(C)C)N(C)C(=O)C3(F)CCN(C(=O)C#CC(C)(C)N(C)C)CC3)C(=O)N3CCCC(N3)C(=O)OCC(C)(C)C2)C1
- IC50 (second compound 0.000949 µM): 1.96 nM
- IC50 (second compound 0.003 µM): 1.84 nM
- IC50 (second compound 0.00949 µM): 1.83 nM
- IC50 (second compound 0.03 µM): 1.79 nM
- IC50 (second compound 0.0949 µM): 1.67 nM
- IC50 (second compound 0.3 µM): 1.46 nM
- viability, T/C [1]: 101%
- viability, T/C [2]: 20.1%
- viability, T/C [3]: 4.36%
- viability, T/C [4]: 3.1%
- viability, T/C [5]: 2.69%
- viability, T/C [6]: 2.22%
- viability, T/C [7]: 94.2%
- viability, T/C [8]: 17.3%
- viability, T/C [9]: 4.24%
- viability, T/C [10]: 3.6%
- viability, T/C [11]: 2.6%
- viability, T/C [12]: 2.53%
- viability, T/C [13]: 93.6%
- viability, T/C [14]: 17%
- viability, T/C [15]: 4.24%
- viability, T/C [16]: 2.85%
- viability, T/C [17]: 2.94%
- viability, T/C [18]: 2.08%
- viability, T/C [19]: 96.1%
- viability, T/C [20]: 12.4%
- viability, T/C [21]: 3.38%
- viability, T/C [22]: 2.65%
- viability, T/C [23]: 2.58%
- viability, T/C [24]: 1.92%
- viability, T/C [25]: 88.9%
- viability, T/C [26]: 9.6%
- viability, T/C [27]: 2.64%
- viability, T/C [28]: 2.41%
- viability, T/C [29]: 2.02%
- viability, T/C [30]: 1.77%
- viability, T/C [31]: 76.2%
- viability, T/C [32]: 5.86%
- viability, T/C [33]: 2.85%
- viability, T/C [34]: 2.43%
- viability, T/C [35]: 1.88%
- viability, T/C [36]: 1.61%

SMILES: CCc1c2c(nc3ccc(O)cc13)-c1cc3c(c(=O)n1C2)COC(=O)[C@]3(O)CC + CCn1c(-c2cccnc2C(C)OC)c2c3cc(ccc31)N1CCOC(CC(NC(=O)C(C(C)C)N(C)C(=O)C3(F)CCN(C(=O)C#CC(C)(C)N(C)C)CC3)C(=O)N3CCCC(N3)C(=O)OCC(C)(C)C2)C1
- IC50 (second compound 0.000949 µM): 1.38 nM
- IC50 (second compound 0.003 µM): 1.45 nM
- IC50 (second compound 0.00949 µM): 1.34 nM
- IC50 (second compound 0.03 µM): 1.4 nM
- IC50 (second compound 0.0949 µM): 1.22 nM
- IC50 (second compound 0.3 µM): < 0.949 nM
- viability, T/C [1]: 72.7%
- viability, T/C [2]: 2.65%
- viability, T/C [3]: 1.03%
- viability, T/C [4]: 1.2%
- viability, T/C [5]: 1.15%
- viability, T/C [6]: 0.54%
- viability, T/C [7]: 77%
- viability, T/C [8]: 3.29%
- viability, T/C [9]: 1.02%
- viability, T/C [10]: 1.1%
- viability, T/C [11]: 1.07%
- viability, T/C [12]: 0.54%
- viability, T/C [13]: 70.4%
- viability, T/C [14]: 2.82%
- viability, T/C [15]: 0.87%
- viability, T/C [16]: 1.06%
- viability, T/C [17]: 1.05%
- viability, T/C [18]: 0.47%
- viability, T/C [19]: 74.8%
- viability, T/C [20]: 1.48%
- viability, T/C [21]: 0.74%
- viability, T/C [22]: 0.96%
- viability, T/C [23]: 0.84%
- viability, T/C [24]: 0.42%
- viability, T/C [25]: 63.8%
- viability, T/C [26]: 1.38%
- viability, T/C [27]: 0.98%
- viability, T/C [28]: 0.71%
- viability, T/C [29]: 0.87%
- viability, T/C [30]: 0.47%
- viability, T/C [31]: 48.2%
- viability, T/C [32]: 1.54%
- viability, T/C [33]: 0.75%
- viability, T/C [34]: 0.83%
- viability, T/C [35]: 0.84%
- viability, T/C [36]: 0.44%
